Results as given in PMC6597546, “Identification of a potent benzoxaborole drug candidate for treating cryptosporidiosis” (Nature Communications, 2019).
Values after ≈ are worked out from the molar mass of the structure shown.

Legend:
[1] = Cytotoxicity THP-1 (3d); type: cell-based; settings: human, THP-1 cells, 25 µM highest concentration tested
[2] = Cytotoxicity Jurkat (3d); type: cell-based; settings: human, Jurkat cells, 25 µM highest concentration tested
[3] = Cytotoxicity murine L929 (3d); type: cell-based; settings: mouse, L929 cells, 25 µM highest concentration tested
[4] = test system: C. parvum invasion of HCT-8 host cells; test: HCT-8 host cell invasion assay; type: cell-based, Cryptosporidium parvum; settings: HCT-8 host cells, 3 h
Method: The invasion assay, DNA replication assay, asexual to sexual stage conversion, and time-kill curve assays were performed using fluorescence microscopy to enumerate parasites and host cell nuclei. Staining protocols are individually described for each assay. Unless noted otherwise, the details of image acquisition were as follows. An inverted Nikon Eclipse Ti2000 microscope with an automated stage and Perfect Focus was used with NIS-Elements Advanced Research software (Nikon, USA, version 4.30.01) to image the wells. The microscope was programmed to focus on the center of each well and then take a 3 × 3 composite image per well using a 20 × (0.45 NA) objective. Images were exported as .tiff files and parasites and host nuclei counted using a custom macro on ImageJ (National Institutes of Health, version 1.52a). Data were analyzed using Microsoft Excel and GraphPad Prism (version 6.01).
Host cell invasion was assayed by allowing C. parvum to invade host cell monolayers in the presence of compound, and enumerating parasites and host cells after just 3 h (i.e., before completion of a parasite division cycle)[38]. HCT-8 cells were grown in RPMI media supplemented with 120 U per mL penicillin and 120 μg per mL streptomycin and 10% heat inactivated fetal bovine serum (complete media) and C. parvum Iowa isolate oocysts from Bunch Grass Farms (Deary, ID) were used for infection. When cells reached a confluence of >99%, media was removed and replaced with 25 µL per well of fresh media containing twice the indicated concentrations of compounds and incubated for 1 h at 37 °C in a humidified CO2 incubator. In the meantime, oocysts were induced for excystation by first treating with 10 mM hydrochloric acid (diluted with distilled water) for 10 min at 37 °C followed by 2 mM sodium taurocholate (in phosphate buffered saline (PBS) with calcium and magnesium) for 10 min at 16 °C. Before and after each treatment, oocysts were spun down at 14,000 × g for 4.5 min and supernatant was removed. […]

[5] = Rat toxicokinetics (TK) study; type: in vivo, Sprague-Dawley male rats; settings: for AUC / Cmax: po, 80 mg/kg
Method: A repeated oral dose toxicity and separate toxicokinetics (TK) study were performed in male rats by WuXi AppTec Company (Suzhou, China). […] All rat studies were performed using ∼8-week-old Sprague-Dawley male rats (Rattus novegicus)/Crl: CD[SD] VAF/Plus weighing between 243.22 and 276.57 g at the start of compound dosing. […] Serum was collected from vehicle-control animals at 1 h and 4 h after dosing on days 1 and 7.

[6] = Solubility PBS pH 7.4; type: physicochemical; settings: aqueous buffer
[7] = Plasma Protein Binding (mouse); type: in vitro ADME; settings: read-out: Plasma Protein Binding (PPB) (converted)
[8] = target: T1, CYP1A2 (Homo sapiens, UniProt P05177); test: CYP450 inhibition 1A2; type: in vitro ADME
T1 sequence (P05177 1-516): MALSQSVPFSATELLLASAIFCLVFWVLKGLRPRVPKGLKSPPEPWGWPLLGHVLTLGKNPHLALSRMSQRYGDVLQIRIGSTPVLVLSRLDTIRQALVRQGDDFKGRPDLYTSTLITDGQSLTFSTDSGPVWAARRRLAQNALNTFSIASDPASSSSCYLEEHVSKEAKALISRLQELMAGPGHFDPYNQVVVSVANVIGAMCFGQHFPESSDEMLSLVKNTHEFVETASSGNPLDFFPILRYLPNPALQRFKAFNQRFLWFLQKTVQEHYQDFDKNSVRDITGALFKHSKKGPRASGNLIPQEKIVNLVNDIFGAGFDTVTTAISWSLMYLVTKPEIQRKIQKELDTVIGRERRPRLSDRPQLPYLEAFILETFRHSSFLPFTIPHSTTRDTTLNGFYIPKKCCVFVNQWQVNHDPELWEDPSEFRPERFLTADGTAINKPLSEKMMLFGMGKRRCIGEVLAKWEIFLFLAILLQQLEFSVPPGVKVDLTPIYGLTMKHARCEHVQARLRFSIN

[9] = target: CYP3A4 (Homo sapiens, UniProt P08684); test: CYP450 inhibition 3A4; type: in vitro ADME
Sequence of CYP3A4 (P08684 whole entry): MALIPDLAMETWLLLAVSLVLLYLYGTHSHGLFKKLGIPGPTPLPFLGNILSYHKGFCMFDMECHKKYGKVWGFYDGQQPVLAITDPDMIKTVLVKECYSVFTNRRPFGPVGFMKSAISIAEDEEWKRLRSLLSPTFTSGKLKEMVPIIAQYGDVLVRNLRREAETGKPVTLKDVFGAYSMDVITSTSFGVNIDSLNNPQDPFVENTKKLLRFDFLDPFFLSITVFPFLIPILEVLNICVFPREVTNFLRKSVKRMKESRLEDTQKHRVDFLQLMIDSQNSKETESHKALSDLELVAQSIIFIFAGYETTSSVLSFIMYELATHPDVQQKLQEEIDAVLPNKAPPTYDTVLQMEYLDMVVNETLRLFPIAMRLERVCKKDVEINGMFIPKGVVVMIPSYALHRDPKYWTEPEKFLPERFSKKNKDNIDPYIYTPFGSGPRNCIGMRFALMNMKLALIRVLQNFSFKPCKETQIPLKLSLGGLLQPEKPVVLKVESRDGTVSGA

[10] = in vivo; settings: male, Sprague-Dawley, rat, po
Method: (§1) A repeated oral dose toxicity and separate toxicokinetics (TK) study were performed in male rats by WuXi AppTec Company (Suzhou, China). […] Animals were individually housed in solid bottom plastic cages with bedding in compliance with the US Animal Welfare Act. All rat studies were performed using ∼8-week-old Sprague-Dawley male rats (Rattus novegicus)/Crl: CD[SD] […] Cage side clinical observations of condition and behavior (i.e., gait, stool, activity level, atonia, coat soiling and grooming, skin turgor, posture, priapism, piloerection) were performed twice daily during the dosing phase, and weights and food consumption were measured daily. At termination, all study animals were evaluated for erythrocyte count, absolute reticulocyte count, alkaline phosphatase, and triglycerides by fasting the animals overnight and obtaining blood from the abdominal aorta at necropsy as a terminal procedure under deep anesthesia (pentobarbital). A complete necropsy and histopathologic studies (hematoxylin and eosin staining) of large intestine, small intestine, stomach, and any gross lesions were performed on all animals on day 7 of dosing. […] Serum was collected from vehicle-control animals at 1 h and 4 h after dosing on days 1 and 7. […] Following completion of blood collection, TK animals were euthanized by CO2 inhalation and exsanguination without necropsy.

[11] = 7-day repeated oral dose toxicity study in rats
Method: as §1

[12] = male, Sprague-Dawley, rat, serum, rat, 80 mg·kg-1 oral once daily, Day 1
[13] = male, Sprague-Dawley, rat, serum, rat, 80 mg·kg-1 oral once daily, Day 7

CC1(C)OB(O)c2cc(NC(=O)c3ccc(-n4cccn4)cc3Cl)ccc21 [AN7973]
IC50 at 3 d [1]: > 25 µM | IC50 at 3 d [2]: > 25 µM | IC50 at 3 d [3]: > 25 µM | activity in C. parvum invasion assay [4]: no activity | compound accumulation ([5]; 80 mg per kg once daily, 7 days): No compound accumulation was observed | AUC [5, 12]: 170 µg·h/mL | Cmax [5, 12]: 11600 ng/mL | AUC [5, 13]: 155 µg·h/mL | Cmax [5, 13]: 10100 ng/mL | Tmax ([5]; male, Sprague-Dawley, serum, rat, 80 mg·kg-1 oral once daily, Day 1): 8 h | half-life ([5]; male, Sprague-Dawley, serum, rat, 80 mg·kg-1 oral once daily, Day 7): 1360 min | solubility [6]: 126 µM (≈ 48.1 µg/mL) | fraction unbound [7]: 0.011 | inhibition at 10 µM [8]: 1% | inhibition at 10 µM [9]: 1% | NOAEL at 7 days [10]: > 80 mg/kg/day | tolerability in rats ([11]; 80 mg per kg per day oral gavage, seven days, male rats): well tolerated | Alkaline phosphatase on day 8 ([11]; 80 mg·kg-1·d-1, mean ± SD): 188 ± 17 U·L-1 | Average weight on day 1 ([11]; 80 mg·kg-1·d-1, mean ± SD): 260.24 g | Average weight on day 7 ([11]; 80 mg·kg-1·d-1, mean ± SD): 305.36 ± 8.8 g | Reticulocyte count on day 8 ([11]; 80 mg·kg-1·d-1, mean ± SD): 563.2 ± 66.6 ×10^9 per L | Total food consumption (days 1-7) ([11]; 80 mg·kg-1·d-1, mean ± SD): 156.1 ± 10.1 g | Triglycerides on day 8 ([11]; 80 mg·kg-1·d-1, mean ± SD): 0.39 ± 0.16 mmol/L | Mortality (unscheduled deaths) ([11]; 80 mg·kg-1·d-1, n=5): 0
